{"source": "patent US20260021196A1", "about": "“HOMOGENEOUS ANTIBODY-CONJUGATES WITH HIGH PAYLOAD LOADING” (SYNAFFIX B.V., priority 2023, published 2026)", "format_in_all_cases": "cell-based", "key": {"MDA-MB-231 (HER2−) cells": {"test_system": "MDA-MB-231 (HER2−) cells", "test": "In vitro cytotoxicity, negative control cell line (Examples 131-133)", "settings": "Homo sapiens, MDA-MB-231, 120 h, Table 8 / FIG. 22C, 5 days incubation, read-out: IC50 (MDA-MB231 cells)", "experimental": "(§1) The cells were incubated for 5 days in a humidified atmosphere at 37° C. and 5% CO2. […] After approximately 4 hours in a humidified atmosphere at 37° C. and 5% CO2 the fluorescence was detected with a fluorescence plate reader (Infinite® M1000 Tecan) at 560 nm excitation and 590 nm emission. The relative fluorescent units (RFU) were normalized to cell viability percentage by setting wells without cells at 0% viability and wells with untreated cells at 100% viability (see FIGS. 22A-22C).\n(§2) After approximately 4 hours in a humidified atmosphere at 37° C. and 5% CO2 the fluorescence was detected with a fluorescence plate reader (Infinite® M1000 Tecan) at 560 nm excitation and 590 nm emission. The relative fluorescent units (RFU) were normalized to cell viability percentage by setting wells without cells at 0% viability and wells with untreated cells at 100% viability (see FIGS. 23A-23B).\nas §1, with “24A-24B).” for “22A-22C).”"}, "NCI-N87 (HER2 3+) cells": {"test_system": "NCI-N87 (HER2 3+) cells", "test": "In vitro cytotoxicity, resazurin cell viability (Examples 131-133)", "settings": "Homo sapiens, NCI-N87, 120 h; Table 8 / FIG. 22A, DAR8 ADCs and free payloads, 5 days incubation", "experimental": "as §1, §2\nas §1, with “24A-24B).” for “22A-22C).”"}, "BT-474 cells": {"test_system": "BT-474 cells", "test": "In vitro cytotoxicity (Example 131)", "settings": "Homo sapiens, Table 8 / FIG. 22B, DAR8 ADCs and free payloads", "experimental": "as §1"}}, "data": [{"molecule": "CO[C@@]12[C@H](COC(N)=O)C3=C(C(=O)C(C)=C(N)C3=O)N1C[C@@H]1N[C@@H]12", "note": "[Mitomycin (free payload), Mitomycin C]", "values": [{"measurement": "IC50", "setting": "MDA-MB-231 (HER2−) cells", "result": "> 0.1", "unit": "µM"}, {"measurement": "IC50", "setting": "NCI-N87 (HER2 3+) cells", "result": 0.094, "unit": "µM"}, {"measurement": "IC50", "setting": "BT-474 cells", "result": 0.905, "unit": "µM"}]}]}
